Results: US20240360179A1, “STAPLED PEPTIDES AND METHODS THEREOF” (FOG PHARMACEUTICALS, INC., priority 2021, published 2024)

Columns and labels:
[1] = Mouse plasma pharmacokinetics (IV, IP); format: in vivo; details: single intraperitoneal (IP) dose at 100 mg/kg
Procedure: Concentrations of agents in biological samples were measured by LC-MS/MS (Triple Quad 6500+). […] 8 uL of plasma or tissue lysate was used for LC method with mobile phase A (1% formic acid (FA, LS118-4, Fisher Scientific) in H2O) and mobile phase B (0.1% FA in ACN), 0.6 ml/min flow rate in Waters ACQUITY UPLC BEH C18 2.1*50 mm, 1.7 μm column. […] MS was conducted by electrospray ionization and multi reaction monitor scans. PK parameters such as plasma maximum concentration (Cmax), and AUC were analyzed by noncompartmental model 200 of Phoenix WinNonlin 8.3, using the linear/log trapezoidal method.
In some embodiments, concentrations of compounds, e.g., stapled peptides, in biological samples were measured by LC-MS/MS (Triple Quad 6500+). […] 8 uL of plasma or tissue lysate was used for LC method with mobile phase A (1% formic acid (FA, LS118-4, Fisher Scientific) in H2O) mobile phase B (0.1% FA in ACN), 0.6 ml/min flowrate in Waters ACQUITY UPLC BEH C18 2.1*50 mm, 1.7 um column. […] In some embodiments, MS was conducted by electrospray ionization and multi reaction monitor scans. In some embodiments, PK parameters such as plasma maximum concentration (Cmax), and AUC were analyzed by noncompartmental model 200 of Phoenix WinNonlin 8.3, using the linear/log trapezoidal method.

[2] = system: Wnt/beta-catenin pathway in COLO320DM tumors; assay: Tumor RNA-sequencing and GSEA in COLO320DM tumors; format: in vivo, mice; details: 48-hr post-dose, i.p. 30 mg/kg
Excerpt: It is noted that both negatively and positively enriched gene sets were observed. Among other things, the present disclosure provides technologies for assessing efficacy of a method, e.g., a treatment, comprising assessing expression of one or more negatively and/or positively enriched genes. In some embodiments, if expression profiles of one or more genes are negatively and/or positively enriched as identified herein, a method may be considered to have efficacy, and/or administration (e.g., of provided technologies such as stapled peptides, compositions, etc.) to a subject can continue. […]
RNAseq Data Analysis. In some embodiments, sequence reads were trimmed to remove possible adapter sequences and nucleotides with poor quality using Trimmomatic v.0.39. The trimmed reads were mapped to the Homo sapiens GRCh38 reference genome available on ENSEMBL using the STAR aligner v.2.7.7a. For grafted tumor samples, host reads were removed with XenofilteR. Unique gene hit counts were calculated by using featureCounts from the R Subread package v.2.4.2. Read filtering, normalization, and differentially expression analysis was performed with the edgeR package v.4.0.2 in R. Genes with an adjusted p-value <0.01 and absolute log 2 fold change >1 were called as differentially expressed genes for each comparison. […]
RNAseq Preparation. […] On average over 60 million 2×150 base pair reads were produced per sample. […]

**Q.** For “Ac-PL3-Glu-Npg-B5-Glu-3COOHF-Aib-Ala-Phe-Lys*3-PyrS2-3Thi-BztA-GlnR*3-Ala-NH2 [I-470]”, which “plasma AUC” value [1] is on record?
**A.** comparable

**Q.** What about the concentration in tumors [2] of the same substance?
**A.** 5181 ng/gram
